Patent US20210227837A1, “NATAMYCIN FOR THE PRESERVATION OF A BAKED PRODUCT” (DSM IP ASSETS B.V., priority 2018, published 2021)

How the values were obtained:
Type in all cases: physicochemical
[1] = Stability of natamycin solutions in propylene glycol and aqueous potassium formate (residual natamycin by HPLC); settings: natamycin 1% (w/w)
Experimental: (§1) Natamycin concentrations were determined using […] as follows. • HPLC system: Waters iClass • Column: Waters Symmetry C18, 4.6×150 mm, 3.5 μm, Part No. WAT200632, Column no. 1483, Lot no. 0198313011 • Column temperature: 25° C. • Eluent A: 50 mM ammonium acetate buffer pH 5.8 (with acetic acid) • Eluent B: Acetonitrile • Wash: 60% acetonitrile/40% water (v/v) • Injection volume: 10 μl • Injector temperature: 10° C. in darkness • Flow: 1 mL/min
(§2) The reverse phase HPLC uses a UV detector to determine the residual concentration of natamycin at 303 nm. A set of standard dilutions containing subsequently increasing concentrations of natamycin in methanol was made and from these a calibration curve was obtained. The concentration of natamycin should not exceed a concentration of 88 mg/L. Generally, the dilutions contained 20 mg of sample and […] of methanol.
A 3.5 M solution of potassium formate in water (15.17 g) was mixed with propylene glycol (80.32 g) and natamycin (1.059 g) and heated for 2.57 h until a final temperature of 105° C. A second batch was prepared by mixing a 3.5 M solution of potassium formate in water (15.07 g) with propylene glycol (80.5 g) and natamycin (1.032 g) and heating for 3.25 h until a final temperature of 105° C. Both batches were filtered over a 2 μm filter and combined to give a solution with a natamycin concentration of 1.08% (w/w). […] Samples of the mixtures were analyzed over time by HPLC for residual natamycin concentration. The shelf life test of the mixtures was done by storage at low temperatures (4-7° C.) and ambient temperatures (20-24° C.).

[2] = Stability of natamycin solutions in propylene glycol and aqueous sodium acetate or potassium acetate (residual natamycin by HPLC); settings: 4-7° C., natamycin 1%
Experimental: as §1, §2
(§3) A 4.4 M solution of sodium acetate or a 5 M solution of potassium acetate in water (3 g) was mixed with propylene glycol (16 g) and natamycin (0.2 g) and heated until a final temperature of 105° C. to give a solution with a natamycin concentration of 1% (w/w). […] Samples of the mixtures were analyzed over time by HPLC for residual natamycin concentration. The shelf life test of the mixtures was done by storage at low temperatures (4-7° C.) and ambient temperatures (20-23° C.).

[3] = Stability of natamycin solutions in propylene glycol and aqueous sodium lactate (residual natamycin by HPLC); settings: 4-7° C., pH 7.8, natamycin 1% (w/w)
Experimental: as §1, §2
as §3, with “[…]” for “4.4”, “lactate” for “acetate or a 5 M solution of potassium acetate”, “(4-7°” for “(4-7° C.) and ambient temperatures (20-23°”

For `C[C@@H]1C/C=C/C=C/C=C/C=C/[C@H](O[C@@H]2O[C@H](C)[C@@H](O)[C@H](N)[C@@H]2O)C[C@@H]2O[C@](O)(C[C@@H](O)C[C@H]3O[C@@H]3/C=C/C(=O)O1)C[C@H](O)[C@H]2C(=O)O` [natamycin], the “Residual natamycin (%)” value ([1]; Blank (water instead of potassium formate), propylene glycol, 4-7° C., pH 6.2, day 0) was 80%, the “Residual natamycin (%)” value ([1]; Blank (water instead of potassium formate), propylene glycol, 4-7° C., pH 6.2, day 14) was 43% and the “Residual natamycin (%)” value ([1]; Blank (water instead of potassium formate), propylene glycol, 4-7° C., pH 6.2, day 23) was 22%. For the same molecule, the “Residual natamycin (%)” value ([1]; Blank (water instead of potassium formate), propylene glycol, 4-7° C., pH 6.2, day 32) was 12%, the “Residual natamycin (%)” value ([1]; Blank (water instead of potassium formate), propylene glycol, 4-7° C., pH 6.2, day 35) was 7% and the “Residual natamycin (%)” value ([1]; Blank (water instead of potassium formate), propylene glycol, 20-24° C., pH 6.3, day 0) was 83%. For the same molecule, the “Residual natamycin (%)” value ([1]; Blank (water instead of potassium formate), propylene glycol, 20-24° C., pH 6.3, day 5) was 72%, the “Residual natamycin (%)” value ([1]; Blank (water instead of potassium formate), propylene glycol, 20-24° C., pH 6.3, day 7) was 66% and the “Residual natamycin (%)” value ([1]; Blank (water instead of potassium formate), propylene glycol, 20-24° C., pH 6.3, day 12) was 55%. The “Residual natamycin (%)” value ([1]; Blank (water instead of potassium formate), propylene glycol, 20-24° C., pH 6.3, day 14) was 52%, the “Residual natamycin (%)” value ([1]; Blank (water instead of potassium formate), propylene glycol, 20-24° C., pH 6.3, day 25) was 31% and the “Residual natamycin (%)” value ([1]; Blank (water instead of potassium formate), propylene glycol, 20-24° C., pH 6.3, day 27) was 25%. For the same molecule, the “Residual natamycin (%)” value ([1]; Blank (water instead of potassium formate), propylene glycol, 20-24° C., pH 6.3, day 43) was 18%, the “Residual natamycin (%)” value ([1]; Blank (water instead of potassium formate), propylene glycol, 20-24° C., pH 6.3, day 74) was 6% and the “Residual natamycin (%)” value ([1]; propylene glycol + aqueous potassium formate, 4-7° C., pH 9.5, day 0) was 111%. For the same molecule, the “Residual natamycin (%)” value ([1]; propylene glycol + aqueous potassium formate, 4-7° C., pH 9.5, day 5) was 114%, the “Residual natamycin (%)” value ([1]; propylene glycol + aqueous potassium formate, 4-7° C., pH 9.5, day 14) was 114% and the “Residual natamycin (%)” value ([1]; propylene glycol + aqueous potassium formate, 4-7° C., pH 9.5, day 23) was 112%. For the same molecule, the “Residual natamycin (%)” value ([1]; propylene glycol + aqueous potassium formate, 4-7° C., pH 9.5, day 43) was 108%, the “Residual natamycin (%)” value ([1]; propylene glycol + aqueous potassium formate, 4-7° C., pH 9.8, day 0) was 96% and the “Residual natamycin (%)” value ([1]; propylene glycol + aqueous potassium formate, 4-7° C., pH 9.8, day 4) was 96%. For the same molecule, the “Residual natamycin (%)” value ([1]; propylene glycol + aqueous potassium formate, 4-7° C., pH 9.8, day 10) was 97%, the “Residual natamycin (%)” value ([1]; propylene glycol + aqueous potassium formate, 4-7° C., pH 9.8, day 15) was 88% and the “Residual natamycin (%)” value ([1]; propylene glycol + aqueous potassium formate, 4-7° C., pH 9.8, day 18) was 92%. The “Residual natamycin (%)” value ([1]; propylene glycol + aqueous potassium formate, 4-7° C., pH 9.8, day 25) was 91%, the “Residual natamycin (%)” value ([1]; propylene glycol + aqueous potassium formate, 4-7° C., pH 9.8, day 42) was 88% and the “Residual natamycin (%)” value ([1]; propylene glycol + aqueous potassium formate, 4-7° C., pH 9.8, day 53) was 90%. For the same molecule, the “Residual natamycin (%)” value ([1]; propylene glycol + aqueous potassium formate, 4-7° C., pH 9.8, day 60) was 96%, the “Residual natamycin (%)” value ([1]; propylene glycol + aqueous potassium formate, 4-7° C., pH 9.8, day 80) was 87% and the “Residual natamycin (%)” value ([1]; propylene glycol + aqueous potassium formate, 4-7° C., pH lowered to 5.9 by formic acid, day 0) was 83%. For the same molecule, the “Residual natamycin (%)” value ([1]; propylene glycol + aqueous potassium formate, 4-7° C., pH lowered to 5.9 by formic acid, day 5) was 66%, the “Residual natamycin (%)” value ([1]; propylene glycol + aqueous potassium formate, 4-7° C., pH lowered to 5.9 by formic acid, day 14) was 45% and the “Residual natamycin (%)” value ([1]; propylene glycol + aqueous potassium formate, 4-7° C., pH lowered to 5.9 by formic acid, day 23) was 21%. For the same molecule, the “Residual natamycin (%)” value ([1]; propylene glycol + aqueous potassium formate, 4-7° C., pH lowered to 5.9 by formic acid, day 43) was 2%, the “Residual natamycin (%)” value ([1]; propylene glycol + aqueous potassium formate, 4-7° C., pH lowered to 8.8 by formic acid, day 0) was 94% and the “Residual natamycin (%)” value ([1]; propylene glycol + aqueous potassium formate, 4-7° C., pH lowered to 8.8 by formic acid, day 5) was 96%. For the same molecule, the “Residual natamycin (%)” value ([1]; propylene glycol + aqueous potassium formate, 4-7° C., pH lowered to 8.8 by formic acid, day 14) was 94%, the “Residual natamycin (%)” value ([1]; propylene glycol + aqueous potassium formate, 4-7° C., pH lowered to 8.8 by formic acid, day 23) was 93% and the “Residual natamycin (%)” value ([1]; propylene glycol + aqueous potassium formate, 4-7° C., pH lowered to 8.8 by formic acid, day 43) was 86%. For the same molecule, the “Residual natamycin (%)” value ([1]; propylene glycol + aqueous potassium formate, 4-7° C., pH lowered to 9.0 by formic acid, day 0) was 93%, the “Residual natamycin (%)” value ([1]; propylene glycol + aqueous potassium formate, 4-7° C., pH lowered to 9.0 by formic acid, day 5) was 97% and the “Residual natamycin (%)” value ([1]; propylene glycol + aqueous potassium formate, 4-7° C., pH lowered to 9.0 by formic acid, day 14) was 94%. The “Residual natamycin (%)” value ([1]; propylene glycol + aqueous potassium formate, 4-7° C., pH lowered to 9.0 by formic acid, day 23) was 93%, the “Residual natamycin (%)” value ([1]; propylene glycol + aqueous potassium formate, 4-7° C., pH lowered to 9.0 by formic acid, day 43) was 92% and the “Residual natamycin (%)” value ([1]; propylene glycol + aqueous potassium formate, 20-24° C., pH 9.8, day 0) was 92%. The “Residual natamycin (%)” value ([1]; propylene glycol + aqueous potassium formate, 20-24° C., pH 9.8, day 5) was 95%, the “Residual natamycin (%)” value ([1]; propylene glycol + aqueous potassium formate, 20-24° C., pH 9.8, day 7) was 95% and the “Residual natamycin (%)” value ([1]; propylene glycol + aqueous potassium formate, 20-24° C., pH 9.8, day 9) was 92%. The “Residual natamycin (%)” value ([1]; propylene glycol + aqueous potassium formate, 20-24° C., pH 9.8, day 12) was 87%, the “Residual natamycin (%)” value ([1]; propylene glycol + aqueous potassium formate, 20-24° C., pH 9.8, day 18) was 92% and the “Residual natamycin (%)” value ([1]; propylene glycol + aqueous potassium formate, 20-24° C., pH 9.8, day 20) was 87%. The “Residual natamycin (%)” value ([1]; propylene glycol + aqueous potassium formate, 20-24° C., pH 9.8, day 27) was 86%, the “Residual natamycin (%)” value ([1]; propylene glycol + aqueous potassium formate, 20-24° C., pH 9.8, day 32) was 82% and the “Residual natamycin (%)” value ([1]; propylene glycol + aqueous potassium formate, 20-24° C., pH 9.8, day 35) was 83%. The “Residual natamycin (%)” value ([1]; propylene glycol + aqueous potassium formate, 20-24° C., pH 9.8, day 43) was 80%, the “Residual natamycin (%)” value ([1]; propylene glycol + aqueous potassium formate, 20-24° C., pH 9.8, day 74) was 69% and the “Residual natamycin (%)” value ([2]; Blank (absence of sodium), propylene glycol, pH 6.2, day 0) was 80%. For the same molecule, the “Residual natamycin (%)” value ([2]; Blank (absence of sodium), propylene glycol, pH 6.2, day 12) was 43%, the “Residual natamycin (%)” value ([2]; Blank (absence of sodium), propylene glycol, pH 6.2, day 23) was 22% and the “Residual natamycin (%)” value ([2]; Blank (absence of sodium), propylene glycol, pH 6.2, day 30) was 12%. For the same molecule, the “Residual natamycin (%)” value ([2]; Blank (absence of sodium), propylene glycol, pH 6.2, day 31) was 7%, the “Residual natamycin (%)” value ([2]; Blank (absence of sodium), propylene glycol, pH 6.2, day 50) was 1% and the “Residual natamycin (%)” value ([2]; propylene glycol + aqueous sodium acetate, pH 8.2, day 0) was 98%. The “Residual natamycin (%)” value ([2]; propylene glycol + aqueous sodium acetate, pH 8.2, day 31) was 72%, the “Residual natamycin (%)” value ([2]; propylene glycol + aqueous sodium acetate, pH 8.2, day 51) was 58% and the “Residual natamycin (%)” value ([3]; day 0) was 89%. The “Residual natamycin (%)” value ([3]; day 1) was 88%, the “Residual natamycin (%)” value ([3]; day 3) was 84% and the “Residual natamycin (%)” value ([3]; day 6) was 81%. For the same molecule, the “Residual natamycin (%)” value ([3]; day 10) was 84%, the “Residual natamycin (%)” value ([3]; day 27) was 71% and the “Residual natamycin (%)” value ([3]; day 38) was 63%. The “Residual natamycin (%)” value ([3]; day 45) was 62% and the “Residual natamycin (%)” value ([3]; day 65) was 45%.
